Results published in article PMC4503980 (Scientific Reports, 2015).

How the values were obtained:
Format in all cases: binding
[1] = biological target: T1, TAMRA-nNOS/PSD-95-PDZ1 interaction (Homo sapiens, UniProt P29475+P78352, V36C); experiment: 'direct' FP assay, TAMRA-nNOS / PDZ1 (saturation and inhibition)
T1 construct: nNOS-PDZ (12–130, human); PDZ1 (61-151); made in house; host or cells: E. coli
Description: (§1) The assay was established by creating a fluorescent version of nNOS-PDZ by TAMRA-labelling nNOS-PDZ via an introduced cysteine residue (V36C). […] However, up to 7.3 μM no inhibition of TAMRA-nNOS/PSD-95-PDZ interactions could be measured (data not shown).
(§2) (a) Saturation curves between TAMRA-nNOS (5 nM) and PDZ1, PDZ2, and PDZ1-2 of PSD-95. […] Error bars indicate SEM based on three individual measurements.
(§3) nNOS-PDZ (12–130, human) and α-Syntrophin-PDZ (82–200, human), both comprising an N-terminal His-tag/FXa-site sequence ([…]), were likewise expressed in E. coli and purified by HisTrap chromatography followed by gel-filtration as described in details previously. To make the TAMRA-labelled nNOS-PDZ, mutant nNOS-PDZ (V36C) protein was generated by standard site-directed mutagenesis and characterized as described previously. […]
(§4) Incubation time was 10–15 minutes (room temperature), and the assay was performed in a 1 × TBS buffer (150 mM NaCl, 10 mM Tris, pH 7.4) using black flat-bottom 384-well plates (Corning Life Sciences, NY) and a Safire2 plate-reader (Tecan, Männedorf, Switzerland). […] TAMRA- and Cy5-probes were measured at excitation/emission values of 530/585 nm (bandwidth = 20 nm) and 635/670 nm (bandwidth = 15 nm), respectively. […]

[2] = biological target: T2, TAMRA-nNOS/PSD-95-PDZ2 interaction (Homo sapiens, UniProt P29475+P78352, V36C); experiment: 'direct' FP assay, TAMRA-nNOS / PDZ2 (saturation and inhibition)
T2 construct: nNOS-PDZ (12–130, human); PDZ2 (155-249); made in house; host or cells: E. coli
Description: as §1, §2, §3, §4

[3] = biological target: T3, TAMRA-nNOS/PSD-95-PDZ1-2 interaction (Homo sapiens, UniProt P29475+P78352, V36C); experiment: 'direct' FP assay, TAMRA-nNOS / PDZ1-2 (saturation and inhibition)
T3 construct: nNOS-PDZ (12–130, human); PDZ1-2 (61-249); made in house; host or cells: E. coli
Description: nNOS-PDZ (12–130, human) and α-Syntrophin-PDZ (82–200, human), both comprising an N-terminal His-tag/FXa-site sequence ([sequence]), were likewise expressed in E. coli and purified by HisTrap chromatography followed by gel-filtration as described in details previously[19]. To make the TAMRA-labelled nNOS-PDZ, mutant nNOS-PDZ (V36C) protein was generated by standard site-directed mutagenesis and characterized as described previously[19]. […]
FP values were fitted to the general equation: Y = Bottom + (Top–Bottom)/[1 + (10^(X-logIC50)*HillSlope)], where X is the logarithmic value of peptide/compound concentration, and Y is the experimental FP values. Competitive inhibition constants, Ki values, were calculated from the IC50 values to quantify affinities between test substance and protein[42].

extended nNOS-PDZ = biological target: T4, extended nNOS-PDZ (Mus musculus, UniProt Q9Z0J4); experiment: ITC titration into extended nNOS-PDZ; conditions: 100 μM protein in cell, 750 μM compound in syringe, 1% DMSO, pH 6.3, 25 °C
T4 construct: nNOS-PDZ (residues 12–134, Uniprot Q9JJ30); made in house
Description: Unlike the FP experiments above, which rely on inhibition of interaction partners, the ITC method is a direct measure of binding, regardless of where it takes place on the protein.
Figure 5 ITC curves. Plots showing titrations into PDZ domains fitted to a one-site model.
For isothermal titration calorimetry (ITC) and NMR, PSD-95-PDZ2 (157–249, human) was expressed and purified as described previously. The sequence for the extended Mus musculus nNOS-PDZ (residues 12–134, Uniprot Q9JJ30) was sub-cloned into a pETM11 vector using cloning sites Nco1 and Kpn1, and the protein was expressed and purified following a similar protocol to that used for the production of PSD-95-PDZ2.
All ITC experiments were carried out at 25 °C on an iTC200 Microcalorimeter (GE Healthcare) with a 200 μL cell capacity and 40 μL syringe volume. The buffer used for all solutions was 20 mM phosphate buffer at pH 6.3; each experiment consisted of an initial injection of 0.5 μL, followed by fifteen 2.39 μL injections before a final injection of 1.89 μL. […] In both cases no heat exchange was detected, confirming that there was appropriate match of buffer conditions with no indication of dilution effects. […] For the nNOS-PDZ/PSD-95-PDZ2 interaction, 100 μM PDZ2 in the cell was titrated with 750 μM nNOS-PDZ. […] All data was analysed using the Origin®7 software programme.

[4] = up to 7.3 μM (fluorescence artefacts above), data not shown

T4 sequence (Q9Z0J4 12-134): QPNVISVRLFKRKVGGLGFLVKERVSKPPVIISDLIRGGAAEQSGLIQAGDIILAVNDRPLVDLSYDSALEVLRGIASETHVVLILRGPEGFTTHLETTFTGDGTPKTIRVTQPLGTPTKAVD

inhibition of TAMRA-nNOS/PDZ1 interaction [1, 4]	inhibition of TAMRA-nNOS/PDZ2 interaction [2, 4]	inhibition of TAMRA-nNOS/PDZ1-2 interaction [3, 4]	inhibition of TAMRA-nNOS/PDZ1 interaction ([1]; tested at up to 1200 μM, TAMRA-nNOS 5 nM, PDZ1 7.5 μM)	inhibition of TAMRA-nNOS/PDZ2 interaction ([2]; tested at up to 1200 μM, TAMRA-nNOS 5 nM, PDZ2 2.5 μM)	inhibition of TAMRA-nNOS/PDZ1-2 interaction ([3]; tested at up to 1200 μM, TAMRA-nNOS 5 nM, PDZ1-2 0.3 μM)	SMILES	binding to extended nNOS-PDZ by ITC (extended nNOS-PDZ)
no inhibition	no inhibition	no inhibition				Oc1c(Cl)cc(Cl)cc1CNc1ccc2[nH]nnc2c1 [IC87201, 2-((1H-Benzo[d][1–3]triazol-5-ylamino)methyl)-4-6-dichlorophenol]	does not bind
			no activity	no activity	no activity	O=C(O)c1ccc(NCc2cc(Cl)cc(Cl)c2O)cc1O [ZL006, 4-((3,5-Dichloro-2-hydroxybenzyl)amino)-2-hydroxybenzoic acid]	binding was too weak to produce a binding isotherm
